According to ChEMBL document CHEMBL1201862, “PubChem BioAssay data set” (2004):
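Step 1: Grow cells in 96-well plates. Step 2: Expose to compound for 48 hours at 5 concentrations. Step 3: Interpolate endpoints linearly; if unreached, use highest concentration. The concentration for 50% growth inhibition is given as GI50.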 Activity calls are given as the source filed them. Cut-off read from the data, not from the text of the source: active = GI50 up to about 1.1 µM and inactive = higher.

Experiments:
Test in all cases: growth of human tumour cells (NCI), 48 h
RPMI-8226 = system: RPMI-8226
TK-10 = system: TK-10
HOP-92 = system: HOP-92
HCT-15 = system: HCT-15
SK-MEL-5 = system: SK-MEL-5
LOX IMVI = system: LOX IMVI
MOLT-4 = system: MOLT-4
Malme-3M = system: Malme-3M
HL-60 = system: HL-60
SK-MEL-28 = system: SK-MEL-28
UACC-257 = system: UACC-257
UACC-62 = system: UACC-62
COLO 205 = system: COLO 205
CCRF-CEM = system: CCRF-CEM
SN12C = system: SN12C
SK-OV-3 = system: SK-OV-3
U-251 = system: U-251
786-0 = system: 786-0
SK-MEL-2 = system: SK-MEL-2
KM12 = system: KM12

Compound | GI50 (RPMI-8226) | GI50 (TK-10) | GI50 (HOP-92) | GI50 (HCT-15) [µM] | GI50 (SK-MEL-5) | GI50 (LOX IMVI) | GI50 (MOLT-4) | GI50 (Malme-3M) | GI50 (HL-60) | GI50 (SK-MEL-28) | GI50 (UACC-257) | GI50 (UACC-62) | GI50 (COLO 205) | GI50 (CCRF-CEM) | GI50 (SN12C) | GI50 (SK-OV-3) | GI50 (U-251) | GI50 (786-0) | GI50 (SK-MEL-2) | GI50 (KM12)
CSC1=NC(C(N)=O)C(N)N1C (stereo not given) | > 100 µM (inactive) | > 100 µM (inactive) | > 100 µM (inactive) | > 100 | > 100 µM (inactive) | > 100 µM (inactive) | > 100 µM (inactive) | > 100 µM (inactive) | > 100 µM (inactive) | > 100 µM (inactive) | > 100 µM (inactive) | > 100 µM (inactive) | > 100 µM (inactive) | > 100 µM (inactive) | > 100 µM (inactive) | > 100 µM (inactive) | > 100 µM (inactive) | > 100 µM (inactive) | > 100 µM (inactive) | > 100 µM (inactive)
COC1CC(C)([N+](=O)[O-])C(O)C(C)O1 (stereo not given) | > 100 µM (inactive) | > 100 µM (inactive) | > 100 µM (inactive) | > 100 | > 100 µM (inactive) | > 100 µM (inactive) | > 100 µM (inactive) | > 100 µM (inactive) | > 100 µM (inactive) | > 100 µM (inactive) | > 100 µM (inactive) | > 100 µM (inactive) | > 100 µM (inactive) | > 100 µM (inactive) | > 100 µM (inactive) | > 100 µM (inactive) | > 100 µM (inactive) | > 100 µM (inactive) | > 100 µM (inactive) | > 100 µM (inactive)
COc1cc(C2C(Cl)C(=O)N2NC(=O)c2ccc(N)cc2)ccc1O (stereo not given) | 78 µM (inactive) | > 100 µM (inactive) | 25.5 µM (inactive) | 39.9 | 84.5 µM (inactive) | 14.8 µM (inactive) | 23.5 µM (inactive) | 16.5 µM (inactive) | 27.9 µM (inactive) | 39.2 µM (inactive) | > 100 µM (inactive) | 64.1 µM (inactive) | 20.8 µM (inactive) | 18.5 µM (inactive) | 32 µM (inactive) | 60.5 µM (inactive) | 18 µM (inactive) | 19.1 µM (inactive) | 59.8 µM (inactive) | 25.1 µM (inactive)
COc1cc(N(C)C)ccc1C=c1c2ccccc2n2c1cc(-c1ccccc1)[n+]2C | 0.151 µM (active) | 0.575 µM (active) | 0.319 µM (active) | 0.979 | 0.637 µM (active) | 0.308 µM (active) | 0.222 µM (active) | 1.02 µM (active) | 0.149 µM (active) | 0.802 µM (active) | 0.319 µM (active) | 0.582 µM (active) | 0.151 µM (active) | 0.208 µM (active) | 0.296 µM (active) | 0.347 µM (active) | 0.0581 µM (active) | 0.197 µM (active) | 0.469 µM (active) | 0.17 µM (active)
O=c1c(NO)c([N+](=O)[O-])cnn1-c1ccccc1 | 4.93 µM (inactive) | 18.4 µM (inactive) | 7.64 µM (inactive) | 4.78 | 6 µM (inactive) | 1.79 µM (inactive) | 2.39 µM (inactive) | 4.6 µM (inactive) | 0.789 µM (active) | 3.43 µM (inactive) | 6.37 µM (inactive) | 4.2 µM (inactive) | 3.62 µM (inactive) | 0.971 µM (active) | 3.08 µM (inactive) | 7.01 µM (inactive) | 3.12 µM (inactive) | 6.07 µM (inactive) | 14.9 µM (inactive) | 9.62 µM (inactive)
Cc1c(O)ccc2c(O)c(NC(=O)c3ccc4c(c3)CCC(C)(C)O4)c(=O)oc12 [CYCLONOVOBIOCIC ACID] | > 100 µM (inactive) | > 100 µM (inactive) | > 100 µM (inactive) | > 100 | > 100 µM (inactive) | > 100 µM (inactive) | > 100 µM (inactive) | > 100 µM (inactive) | > 100 µM (inactive) | > 100 µM (inactive) | > 100 µM (inactive) | 90.6 µM (inactive) | > 100 µM (inactive) | > 100 µM (inactive) | > 100 µM (inactive) | > 100 µM (inactive) | > 100 µM (inactive) | > 100 µM (inactive) | > 100 µM (inactive) | > 100 µM (inactive)
COc1ccc(NC(=O)CC(=O)NNC(Sc2ccccc2)c2cc(/N=N/c3ccc(Br)cc3)ccc2O)cc1 (stereo not given) | > 10 µM (inactive) | > 10 µM (inactive) | > 10 µM (inactive) | > 10 | > 10 µM (inactive) | > 10 µM (inactive) | 3.86 µM (inactive) | > 10 µM (inactive) | 3.61 µM (inactive) | > 10 µM (inactive) | > 10 µM (inactive) | > 10 µM (inactive) | > 10 µM (inactive) | 3.56 µM (inactive) | 7.52 µM (inactive) | > 10 µM (inactive) | > 10 µM (inactive) | 6.73 µM (inactive) | > 10 µM (inactive) | > 10 µM (inactive)
COc1cc(-c2[nH]ccc2Cl)oc1C1=C2N=C3C=C2C(C(C)C)C1CCCCCCCC3 (stereo not given) | 0.339 µM (active) | 2.05 µM (inactive) | 1.69 µM (inactive) | 0.678 | 0.321 µM (active) | 0.167 µM (active) | 0.433 µM (active) | 1.09 µM (active) | 0.299 µM (active) | 1.35 µM (inactive) | 1.29 µM (inactive) | 0.794 µM (active) | 0.566 µM (active) | 0.275 µM (active) | 0.94 µM (active) | 1.6 µM (inactive) | 0.711 µM (active) | 0.449 µM (active) | 0.483 µM (active) | 0.476 µM (active)
Cc1cc2c(c(C(N)=O)c1C)-c1cccc(Cl)c1C2=O | > 100 µM (inactive) | > 100 µM (inactive) | > 100 µM (inactive) | > 100 | > 100 µM (inactive) | > 100 µM (inactive) | 57.9 µM (inactive) | > 100 µM (inactive) | > 100 µM (inactive) | > 100 µM (inactive) | > 100 µM (inactive) | > 100 µM (inactive) | > 100 µM (inactive) | > 100 µM (inactive) | > 100 µM (inactive) | > 100 µM (inactive) | > 100 µM (inactive) | > 100 µM (inactive) | > 100 µM (inactive) | > 100 µM (inactive)
CCOC(=O)c1cccc(NC(=O)CCl)c1 | 3.99 µM (inactive) | 6.03 µM (inactive) | 7.45 µM (inactive) | 2.75 | 1.79 µM (inactive) | 1.34 µM (inactive) | 5.2 µM (inactive) | 6.22 µM (inactive) | 3.94 µM (inactive) | 16.7 µM (inactive) | 5.09 µM (inactive) | 1.52 µM (inactive) | 7.74 µM (inactive) | 3.21 µM (inactive) | 2.01 µM (inactive) | 4.92 µM (inactive) | 1.4 µM (inactive) | 1.9 µM (inactive) | 2.64 µM (inactive) | 7.46 µM (inactive)
C=CC1(CC)/C(=N\O)C(CC)(CC)C(=O)N1O (stereo not given) | > 100 µM (inactive) | > 100 µM (inactive) | 93.8 µM (inactive) | > 100 | > 100 µM (inactive) | > 100 µM (inactive) | > 100 µM (inactive) | > 100 µM (inactive) | > 100 µM (inactive) | > 100 µM (inactive) | > 100 µM (inactive) | > 100 µM (inactive) | > 100 µM (inactive) | > 100 µM (inactive) | > 100 µM (inactive) | > 100 µM (inactive) | > 100 µM (inactive) | > 100 µM (inactive) | > 100 µM (inactive) | > 100 µM (inactive)
CC1CC(C)C2=NOS3=C2C1=NO3 (stereo not given) | > 100 µM (inactive) | > 100 µM (inactive) | > 100 µM (inactive) | > 100 | 30.8 µM (inactive) | > 100 µM (inactive) | 89.9 µM (inactive) | 89.7 µM (inactive) | > 100 µM (inactive) | > 100 µM (inactive) | > 100 µM (inactive) | 79.8 µM (inactive) | 72.6 µM (inactive) | > 100 µM (inactive) | > 100 µM (inactive) | > 100 µM (inactive) | > 100 µM (inactive) | > 100 µM (inactive) | > 100 µM (inactive) | > 100 µM (inactive)
O=c1[nH]c2c(Nc3c4ccccc4nc4ccccc34)c([N+](=O)[O-])c(Nc3c4ccccc4nc4ccccc34)c([N+](=O)[O-])c2[nH]1 | 0.514 µM (active) | 2.11 µM (inactive) | 1.67 µM (inactive) | 1.82 | 2.11 µM (inactive) | 1.52 µM (inactive) | 0.38 µM (active) | 1.57 µM (inactive) | 2.67 µM (inactive) | 3.13 µM (inactive) | 2.41 µM (inactive) | 1.39 µM (inactive) | 1.37 µM (inactive) | 0.855 µM (active) | 1.45 µM (inactive) | 3.03 µM (inactive) | 2.33 µM (inactive) | 1.2 µM (inactive) | 1.87 µM (inactive) | 2.14 µM (inactive)
N=C(N)Nc1ccc(-c2ccc(NC(=N)N)cc2)cc1 | 19.5 µM (inactive) | 14.3 µM (inactive) | 45 µM (inactive) | 49.5 | 16.3 µM (inactive) | 50.8 µM (inactive) | > 100 µM (inactive) | 19 µM (inactive) | 40.9 µM (inactive) | 45.5 µM (inactive) | > 73.5 µM (inactive) | 40.1 µM (inactive) | 21.5 µM (inactive) | 37.3 µM (inactive) | 12.4 µM (inactive) | > 55.8 µM (inactive) | 23.6 µM (inactive) | 24 µM (inactive) | 34.4 µM (inactive) | 33.5 µM (inactive)
